The values that follow are results of earlier work, collected in patent US8426341B2, “Herbicide formulation” (priority 2005, dated 2013).

The conditions of the data set: for pKas (single or first listed value): acid form / neutral form equilibrium, exemplary values; for pKas (second listed value): second value for compounds with more than one acidic hydrogen.

In the case of `CC(C)N1C(=O)c2ccccc2NS1(=O)=O` [Bentazon], the “pKas (single or first listed value)” value is reported as 3.30. As for Imazamethbenz, the “pKas (single or first listed value)” value is on record as 2.9. Turning to `Nc1c(Cl)c(Cl)nc(C(=O)O)c1Cl` [Picloram], the “pKas (single or first listed value)” value is 2.3. `O=C(O)c1cc(Oc2ccc(C(F)(F)F)cc2Cl)ccc1[N+](=O)[O-]` [Acifluorfen]: the “pKas (single or first listed value)” value was 3.86. With `COc1c(Cl)ccc(Cl)c1C(=O)O` [Dicamba, 3,6-dichloro-O-anisic acid], the “pKas (single or first listed value)” value was 1.87. `O=C(O)CCCOc1ccc(Cl)cc1Cl` [2,4-DB]: the “pKas (single or first listed value)” value is recorded as 4.8. `N#Cc1cc(Br)c(O)c(Br)c1` [Bromoxynil]: the “pKas (single or first listed value)” value was 4.06. Take `C[C@@H](Oc1ccc(Oc2ccc(C(F)(F)F)cn2)cc1)C(=O)O` [Fluazifop-p]: the “pKas (single or first listed value)” value is on record as 2.98. Turning to `CC(Oc1ccc(Oc2ccc(Cl)cc2Cl)cc1)C(=O)O` (centres unmarked) [Diclofop], the “pKas (single or first listed value)” value is listed as 3.57. Consider `O=C(O)COc1nc(Cl)c(Cl)cc1Cl` [Triclopyr, 3,5,6-trichloro-2-pyridyloxyacetic acid], for which the “pKas (single or first listed value)” value was 2.68 and the “pKas (second listed value)” value is 3.97. With `O=C(O)c1c(Cl)ccc2cc(Cl)cnc12` [Quinclorac], the “pKas (single or first listed value)” value is listed as 4.34. For `CC(Oc1ccc(Oc2ncc(C(F)(F)F)cc2Cl)cc1)C(=O)O` (centres unmarked) [Haloxyfop], the “pKas (single or first listed value)” value is 2.9. For the compound `CP(=O)(O)CCC(N)C(=O)O` (centres unmarked) [Glufosinate], the “pKas (single or first listed value)” value is 2 and the “pKas (second listed value)” value was 2.9. Take `CC(C)C1(C)N=C(c2nc3ccccc3cc2C(=O)O)NC1=O` (centres unmarked) [Imazaquin]: the “pKas (single or first listed value)” value was 3.8. Take `C[C@@H](Oc1ccc(Oc2cnc3cc(Cl)ccc3n2)cc1)C(=O)O` [Quizalofop-p]: the “pKas (single or first listed value)” value was 1.25.
